Experimental data taken from the NIST ThermoML archive (doi:10.1016/j.jct.2010.12.021).

Experiment: molar heat capacity at constant pressure
Conditions: 101.33 kPa, Small sample (50 mg) DSC

CCCCCC[n+]1cccc2ccccc21.O=S(=O)([N-]S(=O)(=O)C(F)(F)F)C(F)(F)F [1-hexylquinolinium bis(trifluoromethylsulfonyl)amide]
Conditions | molar heat capacity at constant pressure [J/K/mol]
283.12 K, Crystal | 420.81
283.72 K, Crystal | 421.99
284.32 K, Crystal | 423.19
284.92 K, Crystal | 424.39
285.52 K, Crystal | 425.58
286.12 K, Crystal | 426.78
286.72 K, Crystal | 427.94
287.32 K, Crystal | 429.07
287.92 K, Crystal | 430.21
288.52 K, Crystal | 431.37
289.12 K, Crystal | 432.53
289.72 K, Crystal | 433.71
290.32 K, Crystal | 434.96
290.92 K, Crystal | 436.29
291.52 K, Crystal | 437.63
292.12 K, Crystal | 439.04
292.72 K, Crystal | 440.54
293.32 K, Crystal | 442.04
293.92 K, Crystal | 443.6
294.52 K, Crystal | 445.19
295.12 K, Crystal | 446.81
295.72 K, Crystal | 448.46
296.32 K, Crystal | 450.18
296.92 K, Crystal | 451.92
297.52 K, Crystal | 453.71
298.12 K, Crystal | 455.57
298.72 K, Crystal | 457.56
299.32 K, Crystal | 459.55
299.92 K, Crystal | 461.52
300.52 K, Crystal | 463.69
301.12 K, Crystal | 465.97
301.72 K, Crystal | 468.26
302.32 K, Crystal | 470.81
302.92 K, Crystal | 473.57
303.52 K, Crystal | 476.39
304.12 K, Crystal | 479.52
304.73 K, Crystal | 483.2
305.33 K, Crystal | 487.13
305.93 K, Crystal | 491.57
306.53 K, Crystal | 497.37
307.13 K, Crystal | 504.13
307.72 K, Crystal | 510.47
308.32 K, Crystal | 518.68
308.92 K, Crystal | 531.59
309.52 K, Crystal | 546.05
310.12 K, Crystal | 573.74
310.72 K, Crystal | 653.81
311.32 K, Crystal | 795.64
311.92 K, Crystal | 921.44
312.51 K, Crystal | 1266.8
313.09 K, Crystal | 2288.5
313.66 K, Crystal | 3477.3
314.23 K, Crystal | 4856
314.8 K, Crystal | 6301.5
315.37 K, Crystal | 7631.8
315.94 K, Crystal | 9002.3
316.54 K, Crystal | 9157.6
317.17 K, Liquid | 7971.7
317.8 K, Liquid | 6765.5
318.43 K, Liquid | 5315.4
319.06 K, Liquid | 3937.3
319.69 K, Liquid | 2716.7
320.31 K, Liquid | 1646.2
320.92 K, Liquid | 1124.2
321.52 K, Liquid | 783.96
322.12 K, Liquid | 605.73
322.72 K, Liquid | 578.47
323.33 K, Liquid | 579.09
323.93 K, Liquid | 579.53
324.53 K, Liquid | 579.5
325.13 K, Liquid | 579.81
325.73 K, Liquid | 580.31
326.33 K, Liquid | 580.35
326.93 K, Liquid | 580.48
327.53 K, Liquid | 580.91
329.93 K, Liquid | 582.05
330.53 K, Liquid | 582.3
331.13 K, Liquid | 582.61
331.73 K, Liquid | 582.85
332.33 K, Liquid | 583.14
332.93 K, Liquid | 583.5
333.53 K, Liquid | 583.82
334.13 K, Liquid | 584.2
334.73 K, Liquid | 584.61
335.33 K, Liquid | 585.06
335.93 K, Liquid | 585.62
336.53 K, Liquid | 586.11
337.13 K, Liquid | 586.52
337.73 K, Liquid | 586.92
338.33 K, Liquid | 587.33
338.93 K, Liquid | 587.69
339.53 K, Liquid | 587.94
340.13 K, Liquid | 588.08
340.73 K, Liquid | 588.35
341.33 K, Liquid | 588.62
341.93 K, Liquid | 588.83
342.54 K, Liquid | 589.03
343.13 K, Liquid | 589.23
343.73 K, Liquid | 589.47
344.33 K, Liquid | 589.68
344.93 K, Liquid | 589.8
345.53 K, Liquid | 589.91
346.13 K, Liquid | 590.01
346.73 K, Liquid | 590.17
347.33 K, Liquid | 590.33
347.93 K, Liquid | 590.52
348.53 K, Liquid | 590.79
349.13 K, Liquid | 591.11
349.73 K, Liquid | 591.46
350.33 K, Liquid | 591.81
350.93 K, Liquid | 592.11
351.53 K, Liquid | 592.4
352.13 K, Liquid | 592.64
352.73 K, Liquid | 592.89
353.33 K, Liquid | 593.12
353.93 K, Liquid | 593.32
354.53 K, Liquid | 593.58
355.13 K, Liquid | 593.86
355.73 K, Liquid | 594.11
356.33 K, Liquid | 594.37
356.93 K, Liquid | 594.62
357.53 K, Liquid | 594.9
358.13 K, Liquid | 595.2
358.73 K, Liquid | 595.42
359.33 K, Liquid | 595.58
359.93 K, Liquid | 595.78
360.53 K, Liquid | 595.96
361.13 K, Liquid | 596.12
361.73 K, Liquid | 596.19
362.33 K, Liquid | 596.29
362.93 K, Liquid | 596.51
363.53 K, Liquid | 596.79
364.13 K, Liquid | 597.06
364.73 K, Liquid | 597.35
365.33 K, Liquid | 597.68
365.93 K, Liquid | 598.06
366.53 K, Liquid | 598.36
367.13 K, Liquid | 598.59
367.73 K, Liquid | 598.82
368.33 K, Liquid | 599
368.93 K, Liquid | 599.12
369.53 K, Liquid | 599.24
370.13 K, Liquid | 599.38
